{
  "source": "patent US8193147B2",
  "about": "“Use of copolymer 1 for treatment of muscular dystrophy” (Hadasit Medical Research Services & Development Ltd., priority 2007, dated 2012)",
  "format_in_all_cases": "in vivo, mouse",
  "key": {"[1]": {"tested_on": "HO (homozygote) dy^2j mice", "assay": "Grip strength of hind and fore limbs (Grip Strength Meter) in GA-treated dy2J mice", "settings": "for hind limbs strength (muscle grip strength per body weight): between week 7 and week 19, p=0.0017, FIG. 1A", "protocol": "(§1) Population: Twenty C57BL old mice were randomly divided into 4 groups (5 in each group):\n1. WT mice—treated saline 100 μl/IP\n2. WT mice—treated with 200 μg GA/IP\n3. HO mice—treated Saline 100 μl/IP\n4. HO mice—treated with 200 μg GA/IP\n(§2) At 5 weeks of age WT and dy^2J animals were randomly divided to the treated and control groups. The animals were treated three times a week for 13 weeks.\nMeasurement of muscle strength (blind measurement). Once a week weight gain and total peak force (in Gram force/g bodyweight) were determined using electronic Grip Strength Meter, Columbus Instruments (Columbus, Ohio). Muscle strength measurements of both fore and hind limbs were performed according to Connolly A. M. et al., 2001. Mice were brought to the testing room and allowed to acclimatize for 10 minutes before the test begins. Five measurements (fore and hind limbs) were taken from each animal. The three highest measurements for each animal were averaged to give the strength score. Between the fore and hind measurements the mice were allowed to rest for 10 minutes. All measurements were performed by the same person."}, "[2]": {"tested_on": "HO (homozygote) dy^2j mice", "assay": "Motion analysis by video-recording (EthoVision), HO dy2J mice", "protocol": "as §1, §2\n(§3) Motion analysis by video-recording. At the end of the experiment (19 week of age) animal mobility and well-being were video recorded for 10 minutes sessions. The video films were analyzed using the EthoVision system (NBT-New Biotechnology, Jerusalem, Israel, video tracking system recording of activity and movement). Quantitative parameters of mobility of the animals including total distance, maximum distance in 0.2 second, average and peak velocity were calculated."}, "[3]": {"tested_on": "WT (wild type) C57BL mice", "assay": "Motion analysis by video-recording (EthoVision), WT mice", "settings": "WT GA vs WT saline", "protocol": "as §1, §2, §3"}, "dy^2j mice": {"tested_on": "dy^2j mice", "assay": "Muscle biopsy histology (Hematoxylin-Eosin), muscular fibrosis", "settings": "dy^2j mice treated with GA for 12 weeks vs untreated; biopsies in week 17; FIG. 7", "protocol": "Tissue analysis. […]\nMuscle biopsies. Muscle biopsies were obtained from the hind limbs and were tested for:\n1. Muscle histology hematoxylin and eosin stain (H&E) and Gommori trichrome stains"}, "WT and dy^2J mice": {"tested_on": "WT and dy^2J mice", "assay": "Observation of side effects during treatment", "settings": "treated group; 200 μg GA IP three times a week for 13 weeks", "protocol": "as §2\nNo animal had paralysis with inability to reach food or water or dramatic weight loss (more than 10% weight loss between two weightings or 20% or more than its initial weight) or any other severe stress signs, that would necessitate withdrawal of the animal from the experiment."}},
  "data": [
    {"substance": "glatiramer acetate [GA]", "values": [
      {"measurement": "fore limbs strength (muscle grip strength per body weight)", "setting": "[1]; GA 200 μg IP three times a week, GA-treated HO vs untreated HO, p=0.13, FIG. 1B", "result": "only minimal effect"},
      {"measurement": "hind limbs strength (muscle grip strength per body weight)", "setting": "[1]; GA 200 μg IP three times a week, GA-treated HO vs untreated HO", "result": "Significant increase"},
      {"measurement": "hind limbs strength (muscle grip strength per body weight)", "setting": "[1]; GA 200 μg IP three times a week, GA-treated HO vs untreated HO, listed as Cop 1", "result": "improved significantly"},
      {"measurement": "percentage of hind limbs strength, end of the experiment", "setting": "[1]; HO treated mice, age 19 weeks, 100% = WT saline group at age seven weeks, FIG. 2", "result": 95.26, "unit": "%"},
      {"measurement": "percentage of hind limbs strength, initial", "setting": "[1]; HO treated mice, week 7, 100% = WT saline group at age seven weeks, FIG. 2", "result": 62.74, "unit": "%"},
      {"measurement": "hind limbs muscle strength compared with wild type mice", "setting": "[1]; treated dy^2j mice, at the end of the experiment, IP injection", "result": "as strong as the wild type mice"},
      {"measurement": "maximal distance in 0.2 sec period", "setting": "[2]; HO GA treated vs untreated, p=0.016, FIG. 6", "result": "significantly longer"},
      {"measurement": "total 10-minutes average distance", "setting": "[2]; HO GA treated vs untreated, p=0.052, FIG. 5", "result": "significantly longer"},
      {"measurement": "total ten minutes average velocity", "setting": "[2]; HO GA-treated (n=5) vs untreated (n=4), p=0.051, FIG. 3", "result": "significantly faster"},
      {"measurement": "peak velocity in 0.2 sec period", "setting": "[2]; HO GA-treated vs HO untreated, p=0.017, FIG. 4", "result": "significantly faster"},
      {"measurement": "mobility", "setting": "[2]; treated dy^2j mice vs untreated dy^2j mice", "result": "improved significantly"},
      {"measurement": "mobility compared with wild type mice", "setting": "[2]; treated dy^2j mice, at the end of the experiment", "result": "undistinguishable from the mobility of the wild type mice"},
      {"measurement": "peak velocity in 0.2 sec period", "setting": "[3]; p=0.38, FIG. 4", "result": "not significantly different"},
      {"measurement": "maximal distance in 0.2 sec period", "setting": "[3]; p=0.39, FIG. 6", "result": "not significantly different"},
      {"measurement": "total ten minutes average velocity", "setting": "[3]; p=0.51, FIG. 3", "result": "not significantly different"},
      {"measurement": "total 10-minutes average distance", "setting": "[3]; p=0.51, FIG. 5", "result": "not significantly different"},
      {"measurement": "muscular fibrosis in muscle biopsies", "setting": "dy^2j mice", "result": "significantly reduced muscular fibrosis"},
      {"measurement": "side effects", "setting": "WT and dy^2J mice", "result": "No other side effects were noted"}
    ]}
  ]
}
